# Data reported in paper PMC6501587 (The Journal of neuroscience : the official journal of the …, 2009).
# Substitutions are numbered along the chain they refer to. Read-outs that look alike come from different tables or passages of the source.
# Assays:
# [1] = molecular target: T1, P2X4R (Rattus norvegicus, UniProt P51577); type: cell-based; settings: oocytes; for effect on ATP-induced currents: 10 μM metal pre-applied 1 min and co-applied with 10 μM ATP
# T1 sequence (P51577 1-388): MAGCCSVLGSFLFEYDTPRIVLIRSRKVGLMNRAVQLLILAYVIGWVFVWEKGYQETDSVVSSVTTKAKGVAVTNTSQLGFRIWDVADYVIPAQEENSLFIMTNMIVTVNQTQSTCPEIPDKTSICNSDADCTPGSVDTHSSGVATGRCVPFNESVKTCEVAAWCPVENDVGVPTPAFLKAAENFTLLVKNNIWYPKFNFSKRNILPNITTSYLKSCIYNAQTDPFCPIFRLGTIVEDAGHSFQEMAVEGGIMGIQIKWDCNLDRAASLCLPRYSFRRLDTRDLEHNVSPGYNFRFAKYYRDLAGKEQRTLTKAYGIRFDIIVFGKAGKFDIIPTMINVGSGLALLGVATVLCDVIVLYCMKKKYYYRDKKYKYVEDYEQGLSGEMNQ
# [2] = molecular target: T2, P2X2aR (Rattus norvegicus, UniProt P49653); type: cell-based; settings: for effect on the ATP-gated current: 10 μM metal pre-applied 1 min and co-applied with 30 μM ATP; for washout period sufficient to restore normal response: after 10 μM metal
# T2 sequence (P49653 1-472): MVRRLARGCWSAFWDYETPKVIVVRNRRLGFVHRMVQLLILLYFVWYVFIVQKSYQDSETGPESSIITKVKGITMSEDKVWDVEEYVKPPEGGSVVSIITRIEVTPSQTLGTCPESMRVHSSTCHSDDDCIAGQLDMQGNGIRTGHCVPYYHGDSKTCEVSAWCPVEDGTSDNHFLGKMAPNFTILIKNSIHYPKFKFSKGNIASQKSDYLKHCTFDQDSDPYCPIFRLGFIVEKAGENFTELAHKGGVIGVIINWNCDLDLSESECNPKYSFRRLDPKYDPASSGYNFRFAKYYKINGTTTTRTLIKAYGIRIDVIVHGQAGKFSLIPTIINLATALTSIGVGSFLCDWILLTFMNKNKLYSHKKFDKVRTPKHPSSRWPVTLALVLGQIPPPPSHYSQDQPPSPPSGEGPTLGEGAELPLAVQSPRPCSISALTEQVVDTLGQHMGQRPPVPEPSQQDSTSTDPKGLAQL
# [3] = tested on: P2X4/2b chimera; type: cell-based, rat; settings: oocytes
# [4] = molecular target: T3, P2X2a-C430S (Rattus norvegicus, UniProt P49653, C430S); type: cell-based; settings: oocytes; for potentiation compared to wild type P2X2aR: copper or zinc
# T3 sequence (P49653 1-472 C430S): T2 sequence (P49653 1-472) with C430S
# [5] = molecular target: T4, P2X2bR (Rattus norvegicus, UniProt P49653, DEL370-438); type: cell-based; settings: oocytes
# T4 sequence (P49653 with tags, fused parts or gaps DEL370-438): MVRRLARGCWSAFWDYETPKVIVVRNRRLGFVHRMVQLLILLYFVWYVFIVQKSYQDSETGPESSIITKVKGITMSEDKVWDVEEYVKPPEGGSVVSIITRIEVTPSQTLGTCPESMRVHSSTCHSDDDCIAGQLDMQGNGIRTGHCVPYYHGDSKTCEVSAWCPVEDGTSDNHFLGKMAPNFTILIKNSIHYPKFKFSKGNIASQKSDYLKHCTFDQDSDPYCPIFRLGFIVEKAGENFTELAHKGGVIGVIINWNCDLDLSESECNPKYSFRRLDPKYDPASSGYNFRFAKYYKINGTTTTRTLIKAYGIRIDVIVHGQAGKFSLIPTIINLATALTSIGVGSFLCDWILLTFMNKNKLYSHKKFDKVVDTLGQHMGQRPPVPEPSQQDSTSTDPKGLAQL
# [6] = molecular target: T3, P2X2a-C430S; type: cell-based; settings: HEK293 cells
# [7] = tested on: P2X4/2a chimera; type: cell-based, rat; settings: oocytes; for effect on deactivation constant: copper or zinc
# [8] = molecular target: T4, P2X2bR; type: cell-based; settings: HEK293 cells
# [9] = molecular target: T2, P2X2aR; assay: ATP-evoked currents, whole-cell patch clamp, HEK293 cells expressing P2X2aR; type: cell-based
# [10] = molecular target: T5, P2X2a-C430A (Rattus norvegicus, UniProt P49653, C430A); type: cell-based; settings: oocytes; for potentiation compared to wild type P2X2aR: zinc or copper
# T5 sequence (P49653 1-472 C430A): T2 sequence (P49653 1-472) with C430A
# [11] = tested on: P2X2R; settings: after application; ref Mason et al. (2004); cited from earlier work
# [12] = saturating concentration of ATP
structure (smiles),measurement,setting,value
"O[C@@H](CS)[C@@H](O)CS (racemic) [DTT, dithiothreitrol]",effect on receptor activity,[1]; DTT alone,did not modify the receptor activity
same,effect of co-application with H2O2,[1]; DTT co-applied with H2O2,the inhibition was completely obliterated
same,effect on ATP-evoked currents,"[2]; 1 mM DTT alone, oocytes",did not modify the ATP-evoked currents
same,effect of co-application with H2O2,"[2]; DTT co-applied with H2O2, oocytes",abolished the effect of H2O2
"Nc1ncnc2c1ncn2[C@@H]1O[C@H](COP(=O)([O-])OP(=O)([O-])OP(=O)([O-])O)[C@@H](O)[C@H]1O.[Na+].[Na+].[Na+] [ATP, ATP tri sodium salt]",EC50,"[3]; ATP alone, Hill equation",4.6 ± 2.4 µM
same,nH,[3]; ATP,1.2 ± 0.1
same,Imax,[3]; [12],14.0 ± 1.5 μA
same,EC50,"[1]; ATP alone, Hill equation",11 ± 2.6 µM
same,Imax,[1]; [12],4.7 ± 0.6 μA
same,EC50,"[4]; ATP alone, Hill equation",45 ± 6.3 µM
same,nH,[4]; ATP,1.4 ± 0.3
same,Imax,[4]; [12],11.8 ± 0.8 μA
same,EC50,"[5]; ATP alone, Hill equation",59.2 ± 9.1 µM
same,nH,[5]; ATP,1.4 ± 0.3
same,Imax,[5]; [12],15.6 ± 1.9 μA
same,EC50,"[6]; ATP alone, Hill equation",18.1 ± 3.3 µM
same,nH,[6]; ATP,1.5 ± 0.6
same,Imax,[6]; [12],5.4 ± 0.9 nA
same,10–90% deactivation time,"[2]; ATP alone (before mercury), oocytes",4.4 ± 0.2 s
same,EC50,"[2]; ATP alone, Xenopus laevis oocytes, Hill equation",33.3 ± 2.5 µM
same,nH,"[2]; ATP, oocytes, Hill equation",1.4 ± 0.1
same,Imax,"[2]; saturating concentration of ATP, oocytes",12.1 ± 2.9 μA
same,10–90% deactivation time,[7]; ATP alone (before mercury),12.6 ± 1.1 s
same,EC50,"[7]; ATP alone, Hill equation",4.8 ± 0.6 µM
same,nH,[7]; ATP,0.9 ± 0.2
same,Imax,[7]; [12],6.7 ± 1.5 μA
same,EC50,"[8]; ATP alone, Hill equation",7.6 ± 1.3 µM
same,nH,[8]; ATP,1.1 ± 0.3
same,Imax,[8]; [12],4.2 ± 0.9 nA
same,nH,[9]; ATP,1.2 ± 0.2
same,EC50,"[9]; ATP alone, Hill equation",10.2 ± 1.3 µM
same,Imax,[9]; [12],4.6 ± 0.3 nA
same,EC50,"[10]; ATP alone, Hill equation",293 ± 70 µM
same,nH,[10]; ATP,1.2 ± 0.3
same,reduction of ATP potency compared to the wild type,[10],10 fold
same,Imax,[10]; [12],1.2 ± 0.5 μA
"CSS(C)(=O)=O [MMTS, Methylmethane-thiosulfonate]",effect on H2O2 potentiation,[2],abolished
same,current increase by agent alone (transient and reversible),"[2]; MMTS alone, oocytes, data not shown",20%
same,effect on mercury-induced potentiation,"[2]; MMTS treatment, oocytes",abolished
[Cl][Cu][Cl] [copper],inhibition of ATP-evoked currents,"[3]; 10 μM copper, 1 μM ATP",55 ± 12%
same,effect on ATP-induced currents,[1],inhibited
same,potentiation compared to wild type P2X2aR,[4],not changed
same,increase of ATP-gated currents,"[6]; 10 μM metal, ATP ~EC15",4.2 ± 0.9 fold
same,increase of 10–90% deactivation time,[2],2 fold
same,effect on the ATP-gated current,[2]; oocytes,potentiated
same,washout period sufficient to restore normal response,[2]; oocytes,≤ 10 min
same,inhibition of ATP-evoked currents,"[7]; 10 μM copper, 1 μM ATP",50%
same,effect on deactivation constant,[7],did not modify significantly
same,decrease of maximal ATP response,"[7]; copper, not shown",40%
same,increase of ATP-gated currents,"[8]; 10 μM metal, ATP ~EC15",5.7 ± 1.5 fold
same,increase of ATP-evoked currents,"[9]; 10 μM metal, ATP ~EC15",4.5 ± 0.5 fold
same,potentiation compared to wild type P2X2aR,[10],not significantly altered
CO/C(=C/C(N)=O)[C@H](C)[C@H](/C=C/c1csc(-c2csc([C@@H](C)/C=C/C=C/C(C)C)n2)n1)OC [myxothiazol],sensitivity to myxothiazol,[5],insensitive
same,effect of higher concentrations on receptor activity (biphasic),"[2]; higher concentrations, data not shown, expression system not given",inhibited the receptor activity
same,maximal potentiation of ATP-evoked currents,"[2]; myxothiazol applied 10 min prior to ATP, oocytes",1.95 ± 0.18 fold
same,sensitivity to myxothiazol,[8],insensitive
same,increase of ATP-evoked currents,"[9]; 100 nM myxothiazol, 3 μM ATP",1.95 ± 0.14 fold
same,effect on P2X2R-mediated currents,[11],transient increase followed by sustained inhibition
C=C(C)[C@H]1Cc2c(ccc3c2O[C@@H]2COc4cc(OC)c(OC)cc4[C@@H]2C3=O)O1 [rotenone],potentiation by rotenone,[5]; 600 nM,not observed
same,fold-increase of the ATP-evoked currents,"[2]; 600 nM rotenone, 10 min prior to ATP, oocytes",1.75 ± 0.38 fold
same,potentiation by rotenone,[8]; 600 nM,not observed
same,fold-increase of the ATP-evoked currents,[9]; 600 nM rotenone,1.52 ± 0.08 fold
same,effect on P2X2R-mediated currents,[11],transient increase followed by sustained inhibition
[Cl-].[Cl-].[Zn+2] [zinc],potentiation of receptor activity,"[3]; 10 μM zinc, 1 μM ATP",2.6 ± 0.3 fold
same,effect on ATP-induced currents,[1],potentiated
same,potentiation compared to wild type P2X2aR,[4],not changed
same,effect on the ATP-gated current,[2]; oocytes,potentiated
same,washout period sufficient to restore normal response,[2]; oocytes,≤ 10 min
same,potentiation of 1 μM ATP-induced current,"[7]; 10 μM metal, 1 μM ATP",2.6 ± 0.3 fold
same,effect on deactivation constant,[7],did not modify significantly
same,potentiation compared to wild type P2X2aR,[10],not significantly altered
